{
  "source": "ChEMBL document CHEMBL1123856",
  "about": "“Synthesis and biological activities of arginine-vasopressin analogues with 4-hydroxyproline in position 7” (1987)",
  "key": {"Rattus norvegicus [1]": {"system": "Rattus norvegicus", "assay": "Antidiuretic activity on water loaded, ethanol-anesthetized rat.", "type": "functional, Urine"}, "Rattus norvegicus [2]": {"system": "Rattus norvegicus", "assay": "Pressor activity on urethane-anesthetized, phenoxybenzamine-treated rat.", "type": "functional"}, "Rattus norvegicus [3]": {"organism": "Rattus norvegicus", "assay": "Uterine activity was meseared in isolated rat uterus in solutions in the absence No Mg2+ 0.5 mM in vitro", "type": "functional"}, "Rattus norvegicus [4]": {"organism": "Rattus norvegicus", "assay": "Uterine activity was meseared in isolated rat uterus in solutions in the presence Mg2+ 0.5 mM in vitro", "type": "functional"}},
  "note": "Positions of bridges follow the written chain, without caps; N, C: chain ends. Non-standard residues stand in square brackets, D forms with d. Residues, ends and D or L forms follow the SMILES beside them. NMeA = CN[C@@H](C)C(=O)O; Mpa = O=C(O)CCS",
  "data": [
    {"smiles": "NC(=O)CC[C@@H]1NC(=O)[C@H](Cc2ccccc2)NC(=O)[C@H](Cc2ccc(O)cc2)NC(=O)[C@@H](N)CSSC[C@@H](C(=O)N2C[C@H](O)C[C@H]2C(=O)N[C@@H](CCCN=C(N)N)C(=O)NCC(N)=O)NC(=O)[C@H](CC(N)=O)NC1=O", "note": "(stereo in doubt; form 3)", "values": [
      {"measurement": "Antidiuretic activity", "setting": "Rattus norvegicus [1]", "value": 614, "unit": "units/mg"},
      {"measurement": "Pressor activity", "setting": "Rattus norvegicus [2]", "value": 8, "unit": "units/mg"},
      {"measurement": "Uterine activity", "setting": "Rattus norvegicus [3]", "value": 63, "unit": "units/mg"},
      {"measurement": "Uterine activity", "setting": "Rattus norvegicus [4]", "value": 176, "unit": "IU/mg"}
    ]},
    {"smiles": "N=C(N)NCCC[C@H](NC(=O)[C@@H]1CCCN1C(=O)[C@@H]1CSSC[C@H](N)C(=O)N[C@@H](Cc2ccc(O)cc2)C(=O)N[C@@H](Cc2ccccc2)C(=O)N[C@@H](CCC(N)=O)C(=O)N[C@@H](CC(N)=O)C(=O)N1)C(=O)NCC(N)=O", "note": "[VASOPRESSIN]", "values": [
      {"measurement": "Antidiuretic activity", "setting": "Rattus norvegicus [1]", "value": 323, "unit": "units/mg"},
      {"measurement": "Uterine activity", "setting": "Rattus norvegicus [3]", "value": 12, "unit": "units/mg"}
    ]},
    {"smiles": "C[C@@H](C(=O)N[C@@H](CCCN=C(N)N)C(=O)NCC(N)=O)N(C)C(=O)[C@@H]1CSSCCC(=O)N[C@@H](Cc2ccc(O)cc2)C(=O)N[C@@H](Cc2ccccc2)C(=O)N[C@@H](CCC(N)=O)C(=O)N[C@@H](CC(N)=O)C(=O)N1", "note": "([Mpa]YFQNC[NMeA]RG-NH2; disulfide 1-6)", "values": [
      {"measurement": "Antidiuretic activity", "setting": "Rattus norvegicus [1]", "value": 113, "unit": "units/mg"},
      {"measurement": "Pressor activity", "setting": "Rattus norvegicus [2]", "value": 1, "unit": "units/mg"},
      {"measurement": "Uterine activity", "setting": "Rattus norvegicus [3]", "value": 2, "unit": "units/mg"},
      {"measurement": "Uterine activity", "setting": "Rattus norvegicus [4]", "value": 8, "unit": "IU/mg"}
    ]},
    {"smiles": "NC(=O)CC[C@@H]1NC(=O)[C@H](Cc2ccccc2)NC(=O)[C@H](Cc2ccc(O)cc2)NC(=O)[C@@H](N)CSSC[C@@H](C(=O)N2C[C@H](O)C[C@H]2C(=O)N[C@@H](CCCN=C(N)N)C(=O)NCC(N)=O)NC(=O)[C@H](CC(N)=O)NC1=O", "note": "(stereo in doubt; form 2)", "values": [
      {"measurement": "Antidiuretic activity", "setting": "Rattus norvegicus [1]", "value": 780, "unit": "units/mg"},
      {"measurement": "Pressor activity", "setting": "Rattus norvegicus [2]", "value": 1, "unit": "units/mg"},
      {"measurement": "Uterine activity", "setting": "Rattus norvegicus [3]", "value": 225, "unit": "units/mg"},
      {"measurement": "Uterine activity", "setting": "Rattus norvegicus [4]", "value": 285, "unit": "IU/mg"}
    ]},
    {"smiles": "NC(=O)CC[C@@H]1NC(=O)[C@H](Cc2ccccc2)NC(=O)[C@H](Cc2ccc(O)cc2)NC(=O)[C@@H](N)CSSC[C@@H](C(=O)N2C[C@H](O)C[C@H]2C(=O)N[C@@H](CCCN=C(N)N)C(=O)NCC(N)=O)NC(=O)[C@H](CC(N)=O)NC1=O", "note": "(stereo in doubt; form 1)", "values": [
      {"measurement": "Antidiuretic activity", "setting": "Rattus norvegicus [1]", "value": 712, "unit": "units/mg"},
      {"measurement": "Pressor activity", "setting": "Rattus norvegicus [2]", "value": 4, "unit": "units/mg"},
      {"measurement": "Uterine activity", "setting": "Rattus norvegicus [3]", "value": 73, "unit": "units/mg"},
      {"measurement": "Uterine activity", "setting": "Rattus norvegicus [4]", "value": 268, "unit": "IU/mg"}
    ]},
    {"smiles": "CC(C)C[C@H](NC(=O)[C@@H]1CSSC[C@H](N)C(=O)N[C@@H](Cc2ccc(O)cc2)C(=O)N[C@@H](Cc2ccccc2)C(=O)N[C@@H](CCC(N)=O)C(=O)N[C@@H](CC(N)=O)C(=O)N1)C(=O)N[C@@H](CCCN=C(N)N)C(=O)NCC(N)=O", "note": "(H-CYFQNCLRG-NH2; disulfide 1-6)", "values": [
      {"measurement": "Antidiuretic activity", "setting": "Rattus norvegicus [1]", "value": 19, "unit": "units/mg"}
    ]},
    {"smiles": "NC(=O)CC[C@@H]1NC(=O)[C@H](Cc2ccccc2)NC(=O)[C@H](Cc2ccc(O)cc2)NC(=O)CCSSC[C@@H](C(=O)N2CC=C[C@H]2C(=O)N[C@@H](CCCN=C(N)N)C(=O)NCC(N)=O)NC(=O)[C@H](CC(N)=O)NC1=O", "values": [
      {"measurement": "Antidiuretic activity", "setting": "Rattus norvegicus [1]", "value": 4130, "unit": "units/mg"},
      {"measurement": "Pressor activity", "setting": "Rattus norvegicus [2]", "value": 240, "unit": "units/mg"},
      {"measurement": "Uterine activity", "setting": "Rattus norvegicus [3]", "value": 69, "unit": "units/mg"}
    ]},
    {"smiles": "N=C(N)NCCC[C@@H](NC(=O)[C@@H]1CCCN1C(=O)[C@@H]1CSSCCC(=O)N[C@@H](Cc2ccc(O)cc2)C(=O)N[C@@H](Cc2ccccc2)C(=O)N[C@@H](CCC(N)=O)C(=O)N[C@@H](CC(N)=O)C(=O)N1)C(=O)NCC(N)=O", "note": "[DESMOPRESSIN]", "values": [
      {"measurement": "Antidiuretic activity", "setting": "Rattus norvegicus [1]", "value": 1740, "unit": "units/mg"},
      {"measurement": "Pressor activity", "setting": "Rattus norvegicus [2]", "value": 346, "unit": "units/mg"},
      {"measurement": "Uterine activity", "setting": "Rattus norvegicus [3]", "value": 28, "unit": "units/mg"}
    ]}
  ]
}
